Assay results from patent US5674905A, “Bicyclooctane and bicycloheptane derivatives” (James Black Foundation Limited, priority 1992, dated 1997).

What was measured:
CCKB receptor = target: T1, CCKB receptor (Mus musculus, UniProt P56481); assay: radioligand binding assay at the CCKB receptor in mouse cortical membranes ([125I]-CCK8S); details: 150 min at 21±3°; for Ki: read-out: CCKB pKi (converted)
T1 construct: The cortex was dissected, weighed and homogenised in 40 ml ice-cold buffer; from tissue; host or cells: cerebral cortex membranes of male CD1 mice (Charles River)
T1 sequence (P56481 1-453): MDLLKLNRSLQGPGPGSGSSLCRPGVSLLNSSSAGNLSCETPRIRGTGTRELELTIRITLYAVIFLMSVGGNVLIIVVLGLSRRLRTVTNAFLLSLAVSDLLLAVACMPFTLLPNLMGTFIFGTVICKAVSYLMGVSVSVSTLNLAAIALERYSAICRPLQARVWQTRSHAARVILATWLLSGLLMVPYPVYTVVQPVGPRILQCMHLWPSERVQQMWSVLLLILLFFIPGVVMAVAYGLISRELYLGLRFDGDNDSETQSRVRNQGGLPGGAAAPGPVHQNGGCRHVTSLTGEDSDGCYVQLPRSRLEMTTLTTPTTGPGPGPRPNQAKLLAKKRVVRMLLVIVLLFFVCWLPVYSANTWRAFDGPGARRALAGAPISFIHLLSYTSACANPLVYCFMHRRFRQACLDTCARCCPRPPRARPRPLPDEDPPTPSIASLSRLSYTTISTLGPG
Experimental: The compounds of the examples were tested for binding at the CCKB receptor in mouse cortical membranes by means of a radioligand binding assay. The procedure was as follows:
The whole brains from male mice (CD1 22-25 g; Charles River) were removed and placed in ice-cold buffer (pH7.2 @ 21±3 °) of the following composition (mM); 10 HEPES, 130 NaCl, 4.7 KCl, 5 MgCl2, 1 EDTA and containing 0.25 g.1^-1 bacitracin. The cortex was dissected, weighed and homogenised in 40 ml ice-cold buffer using a Teflon-in-glass homogeniser. The homogenate was centrifuged at 39,800 g for 20 min at @ 4°, the supernatant discarded and the pellet resuspended by homogenisation in fresh buffer. The homogenate was recentrifuged (39,800 g; 20 min @4°) and the final pellet was resuspended in HEPES buffer to give a tissue concentration of 2 mg.ml^-1 (original wet weight).
The membranes ([…]) were incubated for 150 min at 21±3° in a final volume of 0.5 ml with HEPES buffer containing [^125 I]-CCK8S (0.05 ml; 200 pM NEN 2200 Ci.mmol^-1) and competing compound. Total and non-specific binding of [^125 I]-CCK8S were defined using 0.05 ml of buffer and 0.05 ml of […] L-365,260, respectively. The assay was terminated by rapid filtration through pre-soaked Whatman GF/B filters using a Brandell Cell harvester. The filters were washed (3×3 ml) with ice-cold 50 mM Tris-HC1 (pH7.4 @ 4° C.) and bound radioactivity determined by counting (1 min.) in a gamma-counter.

gastrin receptors = target: T2, gastrin receptors (Rattus norvegicus, UniProt P30553); assay: gastrin antagonist activity in an immature rat stomach assay (pentagastrin-stimulated acid secretion); details: isolated immature rat stomach, cumulative pentagastrin dose-response curves; for Kb: read-out: Gastrin pKB (converted); for Gastrin pKB: 60 min
T2 construct: from tissue; host or cells: isolated perfused whole stomach of immature rats (33-50 g, ca. 21 days old)
T2 sequence (P30553 1-452): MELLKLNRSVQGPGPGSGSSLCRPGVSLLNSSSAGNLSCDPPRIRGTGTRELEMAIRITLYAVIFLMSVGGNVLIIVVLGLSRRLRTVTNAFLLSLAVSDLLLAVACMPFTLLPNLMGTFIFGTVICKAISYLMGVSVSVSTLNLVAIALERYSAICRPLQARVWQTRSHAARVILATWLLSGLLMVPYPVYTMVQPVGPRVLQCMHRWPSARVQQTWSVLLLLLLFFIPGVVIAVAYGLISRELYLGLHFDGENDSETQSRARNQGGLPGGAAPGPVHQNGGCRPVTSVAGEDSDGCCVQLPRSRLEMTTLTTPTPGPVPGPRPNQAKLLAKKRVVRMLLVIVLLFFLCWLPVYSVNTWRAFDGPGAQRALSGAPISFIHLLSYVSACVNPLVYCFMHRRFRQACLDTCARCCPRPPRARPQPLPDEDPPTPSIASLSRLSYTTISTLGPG
Experimental: The compounds of the examples were also tested for gastrin antagonist activity in an immature rat stomach assay. The procedure was as follows:
The oesophagus of immature rats (33-50 g, ca. 21 days old) was ligated at the level of the cardiac sphincter and the duodenal sphincter was cannulated. The stomach was excised and flushed with ca. 1 ml of unbuffered physiological saline solution. The fundus was punctured and cannulated. A further 4-5 ml of unbuffered solution was flushed through the stomach to ensure the preparation was not leaking. The stomach was lowered into a jacketed organ bath containing 40 ml of buffered solution containing 3×10^-8 M 5-methyl-furmethide, maintained at 37° and gassed vigorously with 95% O2 /5% CO2. The stomach was continuously perfused at a rate of 1 ml min^-1 with unbuffered solution gassed with 100% O2 with the perfusate passing over an internally referenced pH-electrode fixed 12 cm above the stomach.
After 120 min of stabilisation the drugs were added directly to the serosal solution in the organ bath and after a further 60 min cumulative pentagastrin dose-response curves were started. Changes in acid secretion were monitored and the curves analysed according to Black et. al., Br. J. Pharmacol., 1985, 86, 581.

Row | SMILES | Ki (CCKB receptor) [nM] | Kb (gastrin receptors) [nM] | CCKB pKi (CCKB receptor) | Gastrin pKB (gastrin receptors)
1 | O=C1CC2c3ccccc3C1C(C(=O)O)C2C(=O)NCC12CC3CC(CC(C3)C1)C2 (mixture of isomers) [Example 13, endo-(±)-cis-8-(1-adamantylmethylaminocarbonyl)-2-oxo-5,6-benzobicyclo[2.2.2]octane-7-carboxylic acid] | 2510 | 3160 |  | 
2 | CC1=C(C)[C@H]2c3ccccc3[C@@H]1[C@H](C(=O)O)[C@@H]2C(=O)NCC12CC3CC(CC(C3)C1)C2 (relative stereo) [Example 12, endo-(±)-cis-8-(1-adamantylmethylaminocarbonyl)-2,3-dimethyl-5,6-benzobicyclo[2.2.2]oct-2-ene-7-carboxylic acid] | 794 | 5010 |  | 
3 | COC(=O)[C@@H]1CCCN1C(=O)C1C2C=CC(c3ccccc32)C1C(=O)NCC12CC3CC(CC(C3)C1)C2 (stereo partly drawn) [Example 31, exo-cis-7-(2-S-methoxycarbonyl-pyrrolidinocarbonyl)-8-(1-adamantylmethylaminocarbonyl)-5,6-benzo-bicyclo[2.2.2]oct-2-ene] |  | 501 |  | 
4 | CC1=C(C)[C@H]2c3ccccc3[C@@H]1[C@@H](C(=O)O)[C@H]2C(=O)NCC12CC3CC(CC(C3)C1)C2 (relative stereo) [Example 11, exo-(±)-cis-8-(1-adamantylmethylaminocarbonyl)-2,3-dimethyl-5,6-benzobicyclo[2.2.2]oct-2-ene-7-carboxylic acid] | 1580 | 6310 |  | 
5 | COC(=O)[C@@H]1CCCN1C(=O)C1C2C=CC(c3ccccc32)C1C(=O)NCC12CC3CC(CC(C3)C1)C2 (stereo partly drawn) [Example 30, endo-cis-7-(2-S-methoxycarbonyl-pyrrolidinocarbonyl)-8-(1-adamantylmethylaminocarbonyl)-5,6-benzo-bicyclo[2.2.2]oct-2-ene] | 501 | 398 |  | 
6 | O=C(O)[C@@H]1[C@H](C(=O)NCC23CC4CC(CC(C4)C2)C3)[C@H]2C=C[C@@H]1c1ccccc12 (relative stereo) [Example 2, endo-(±)-cis-8-(1-adamantylmethylaminocarbonyl)-5,6-benzobicyclo[2.2.2]oct-2-ene-7-carboxylic acid] | 2510 | 1260 |  | 
7 | COC(=O)[C@H](C)NC(=O)C1C2CCC(CC2)C1C(=O)NCC12CC3CC(CC(C3)C1)C2 (mixture of isomers) [Example 25, cis-(±)-2-(1-S-Methoxycarbonyl-ethylaminocarbonyl)-3-(1-adamantylmethylaminocarbonyl)-bicyclo[2.2.2]octane] | 7940 | 1000 |  | 
8 | COC(=O)C12CC(c3ccccc31)C(C(=O)NCC13CC4CC(CC(C4)C1)C3)C2C(=O)O (mixture of isomers) [Example 54, 1-methoxycarbonyl-endo-cis-(±)-7-(1-adamantylmethylaminocarbonyl)-2,3-benzobicyclo-[2.2.1] hept-6-carboxylic acid] |  |  | 5.3 | 6.1

Now from value to compound, other results behind:

Row | Ki (CCKB receptor) [nM] | Kb (gastrin receptors) [nM] | CCKB pKi (CCKB receptor) | SMILES | Gastrin pKB (gastrin receptors)
9 | 631 | 200 |  | COC(=O)[C@H](C)NC(=O)C1C2CCC(c3ccccc32)C1C(=O)NCC12CC3CC(CC(C3)C1)C2 (stereo partly drawn) [Example 22, endo-cis-7-(1-S-Methoxycarbonyl-ethylaminocarbonyl)-8-(1-adamantylmethylaminocarbonyl)-2,3-benzobicyclo[2.2.2]octane] | 
10 | 316 | 501 |  | O=C(NCC12CC3CC(CC(C3)C1)C2)C1C2C=CC(c3ccccc32)C1C(=O)N[C@H](Cc1c[nH]c2ccccc12)C(=O)O (single isomer, unassigned) [Example 16, endo-cis-7-(2-R-(3-indolyl)-1-carboxy-ethylaminocarbonyl)-8-(1-adamantylmethylaminocarbonyl)-5 , 6-benzobicyclo[2.2.2]oct-2-ene] | 
11 | 2510 | 794 |  | O=C(NCC12CC3CC(CC(C3)C1)C2)C1C2C=CC(c3ccccc32)C1C(=O)N1CCC[C@@H]1C(=O)O (stereo partly drawn) [Example 9, exo-cis-7-(2-R-carboxy-pyrrolidinocarbonyl)-8-(1-adamantylmethylaminocarbonyl)-5,6-benzobicyclo-[2.2.2]oct-2-ene] | 
12 | 251 | 316 |  | COC(=O)[C@H](C)NC(=O)C1C2C=CC(c3ccccc32)C1C(=O)NCC12CC3CC(CC(C3)C1)C2 (stereo partly drawn) [Example 7, exo-cis-7-(1-S-methoxycarbonyl-ethylaminocarbonyl)-8-(1-adamantylmethylaminocarbonyl)-5,6-benzobicyclo[2.2.2]oct-2-ene] | 
13 | 316 | 50.1 |  | O=C(O)c1cc(NC(=O)[C@H](Cc2ccccc2)NC(=O)C2C3C=CC(c4ccccc43)C2C(=O)NCC23CC4CC(CC(C4)C2)C3)cc(C(=O)O)c1 (stereo partly drawn) [Example 60, exo-cis-7-(1S-(3,5-dicarboxyphenylaminocarbonyl)-2-phenyl-ethylaminocarbonyl)-8-(1-adamantylmethylaminocarbonyl)-5,6-benzobicyclo[2.2.2]oct-2-ene] | 
14 | 3160 | 1260 |  | O=C(NCC12CC3CC(CC(C3)C1)C2)C1C2C=CC(c3ccccc32)C1C(=O)N1CCC[C@H]1C(=O)O (stereo partly drawn) [Example 26, endo-cis-7-(2-S-carboxy-pyrrolidinocarbonyl)-8-(1-adamantylmethylaminocarbonyl)-5,6-benzo-bicyclo[2.2.2]oct-2-ene] | 
15 |  |  | 7.6 | COC(=O)C12CC(c3ccccc31)C(C(=O)NCC13CC4CC(CC(C4)C1)C3)C2C(=O)N[C@@H](Cc1ccccc1)C(=O)Nc1cc(C(=O)O)cc(C(=O)O)c1 (mixture of isomers) [Example 55, (±)-1-methoxycarbonyl-endo-cis-6-(1S-(3,5-dicarboxyphenylaminocarbonyl)-2-phenylethylamino-carbonyl)-7-(1-adamantylmethylaminocarbonyl)-2,3-benzo-bicyclo[2.2.1]heptane] | 6.9
16 | 1260 |  |  | C[C@@H](NC(=O)[C@H]1CCCN1C(=O)C1C2CCC(c3ccccc32)C1C(=O)NCC12CC3CC(CC(C3)C1)C2)C(=O)O (stereo partly drawn) [Example 47, cis-endo-7-(2R-(1R-carboxyethylaminocarbonyl)-pyrrolidinocarbonyl)-8-(1-adamantylmethylaminocarbonyl)-2,3-benzobicyclo[2.2.2]octane] | 
17 |  |  | 5.6 | O=C(O)CNC(=O)[C@@H]1CCCN1C(=O)C1C2CCC(c3ccccc32)C1C(=O)NCC12CC3CC(CC(C3)C1)C2 (stereo partly drawn) [Example 45, cis-exo-7-(2R-carboxymethylaminocarbonylpyrrolidinocarbonyl)-8-(1-adamantylmethylaminocarbonyl)-2,3-benzobicyclo[2.2.2]octane] | 
